The text below walks through data of patent US20040002842A1, “Methods and systems for analyzing complex biological systems” (priority 2001, published 2004).

Entries after “also recorded” stand apart in the source; their conditions may differ.

For assay [1], the system named is Saccharomyces cerevisiae wild type strain BY4743. The assay can be described thus: AF1 yeast gene expression analysis (microarray, KEGG pathway mapping). Format: cell-based. The conditions noted are these: for # Transcripts perturbed by treatment: 2×MIC, two hours. The procedure: Saccharomyces cerevisiae wild type strain BY4743 was purchased from American Type Culture Center (ATCC, Manassas, Va.). The yeast strain was grown in YPD or SD media. H. […] The cultures started from fresh single colonies were grown in 1.0 ml YPD overnight at 30° C. […] The OD600 was adjusted to 1.0 with YPD media, then 2.0 ml of each was inoculated into three 250 ml flasks, each containing 50 ml of SD media. […] The cells were kept growing for another two hours, then collected by centrifugation at 4000 rpm for 5 minutes at 4° C. Pellets were washed once with ice-cold water, then were lyophilized overnight at 4° C. […] Tubes were vortexed for 30 seconds, then incubated for 10 minutes at room temperature (RT). […] Tubes were incubated for 10 minutes at RT. Samples were centrifuged for 20 minutes as before. Pellets were washed with 400 μl 70% ethanol and centrifuged for 10 minutes as before. The pellet was then dissolved in 100 μl nuclease-free water. RNA quality was determined using the Bioanalyzer 2100 and the RNA 6000 assay (Agilent Technologies, Palo Alto, Calif.) according to manufacturer's instructions. RNA concentrations were determined spectrophotometrically by measuring the absorption at 260 nm in an Ultrospec 2000 (Pharmacia Biotech, Piscataway, N.J.). […] Labeled cRNAs were evaluated using the RNA 6000 assay on the Agilent Bioanalyzer 2100. Labeled cRNA concentrations were determined spectrophotometrically by measuring the absorption at 260 nm in an Ultrospec 2000 (Pharmacia Biotech, Piscataway, N.J.). […] Each pair of samples to be hybridized were independently labeled and hybridized utilizing a fluor reversal for a total of two hybridizations per sample pair. The microarrays were scanned simultaneously in the Cy3 and Cy5 channels with Agilent's 48-slide, Dual Laser DNA Microarray Scanner (Agilent Technologies, Palo Alto, Calif.) at 10 μm resolution using default settings. Image Analysis Software (Version A.4.0.45, Agilent Technologies, Palo Alto, Calif.) was used for image analysis. Each feature was determined from an array's associated pattern file and a detection algorithm. Intensity values for each feature were determined after subtracting background derived from an average of negative control features. Features with unusual pixel intensity statistics (e.g., high non-uniformity, saturation in either channel, and the like) were excluded from downstream analyses. Data was loaded into the Rosetta RESOLVER database (Rosetta Inpharmatics Inc., Kirkland, Wash.) for storage and analysis. Data was evaluated after combining results from fluor reversal replicate hybridizations. The annotation of yeast ORFs was obtained from Proteome BIOKNOWLEDGE Library (Incyte Genomics, Palo Alto, Calif.). In AF1, two different technologies were utilized: gene expression analysis (for examination of mRNA expression) and metabolite analysis. […] As noted previously, existing metabolic databases may be helpful in practicing the methods and systems of the present invention, but many databases include limitations that make their use in data analysis and pathway mapping less than straightforward. […] This caveat to KEGG makes it difficult to pinpoint the correct pathway when attempting to link a gene to a specific pathway. The pathway score indicates how meaningful the mapping is, or how likely it is to be correctly indicative of the pathway involved in the perturbation under examination. The method provides a pathway score based on perturbation levels of genes and/or compounds and the information content of each gene and/or compound in the pathway, i.e., a pathway score indicates the extent to which other pathways are mapped to a gene/compound. For example, imagine that two genes are perturbed in a particular experiment.

Assay [2] shares this test system. The assay can be described thus: AF1 yeast metabolite analysis by GC-MS and LC-MS. The conditions noted are these: 2×MIC, two hours. The assay is classed as cell-based.
For assay [3] the test system is unchanged. Kind of assay: AF1 combined gene expression and metabolite data (reactions, pathways, cluster analysis). The assay is classed as cell-based. An excerpt:
The data were then combined to determine the number of reactions showing an enzyme and at least one compound perturbed, and to determine the number of pathways having at least one enzyme and one perturbed compound perturbed. The results of the analysis are represented in Tables 16 and 17, and were difficult to interpret, illustrating that the ability to draw conclusions from compound mapping to pathways is limited when absent additional data. […] A coherent data set was created from data obtained from the four above-described drug compounds. The data were reduced by using principle components analysis and cluster analysis.

Assay [4] concerns Arabidopsis thaliana. The assay can be described thus: MOA1 gene expression profiling (22,000 gene array). The conditions noted are these: 1 hr; for Regulated Genes Following Herbicide Treatment: Up / Regulated Genes Following Herbicide Treatment: Down: p < 0.5; for No. of Lethal Genes Altered: regulated genes compared to list of essential (lethal) genes.
The subject of assay [5] is Arabidopsis thaliana plants. Kind of assay: SOA1 phenotypic analysis of herbicide-treated plants (incl. MIC/Tmic). The note with it: for characteristic symptoms (morphological phenotype): herbicide-treated plants; for leafCurling, Dev. / leafTwisting, Dev. / leafWidth, Dev. / matureLeafAnthocyanins, Dev. / matureLeafChlorosis, Dev. / matureLeafNecrosis, Dev. / newLeafAnthocyanins, Dev. / newLeafChlorosis, Dev. / newLeafNecrosis, Dev. / pointedLeaves, Dev.: herbicide sprayed on 21-day plants, numeric value standardized to mock treated; for tMic, Dev.: score for time to full symptoms at minimum inhibitory concentration. The assay is classed as in vivo.

The test system of assay [6] is Arabidopsis thaliana. Kind of assay: MOA1 biochemical (metabolite) profiling by LC-MS and GC-MS. The note with it: for stress related metabolites: within one hour after spraying.
The subject of another assay is Magnaporthe grisea. Format: cell-based.
For the next assay, the system named is Arabidopsis plants. The conditions noted are these: nitrate addition to N-starved plants; cited from earlier work.

Turning to `C[C@@H]1[C@H](O)[C@@H](C)/C=C/C=C/C=C/C=C/C=C/C=C/C=C/[C@H](O[C@@H]2O[C@H](C)[C@@H](O)[C@H](N)[C@@H]2O)C[C@@H]2O[C@](O)(C[C@@H](O)C[C@@H](O)[C@H](O)CC[C@@H](O)C[C@@H](O)CC(=O)O[C@H]1C)C[C@H](O)[C@H]2C(=O)O` [Amphoteracin B], the figures for the “# Transcripts perturbed by treatment” value in assay [1] (P < 0.05) and in assay [1] (P < 0.1) were 4363 and 4652, respectively. Further, in assay [1] (p < 0.05, KEGG mapping), the “Number of Pathways Affected by at Least One Gene, # Pathways” value stood at 97. The “# Compounds perturbed by treatment” value in assay [2] (P < 0.05) is given as 16; in assay [2] (P < 0.1) it was 21. The “Number of Reactions Having an Enzyme and at Least One Compound Perturbed, # Reactions” value in assay [3] is 54.

Turning to `COc1nc(C)nc(NC(=O)NS(=O)(=O)c2ccccc2Cl)n1` [Chlorsulfuron], in the assay with Arabidopsis thaliana [4], the “Regulated Genes Following Herbicide Treatment: Up” value turned out to be 97 and the “No. of Lethal Genes Altered” value is 8. For the same molecule, the “characteristic symptoms (morphological phenotype)” value in assay [5] is “anthocyanin accumulation in the older leaves accompanied by chlorosis of the newly emerging leaves”.

For the molecule `CP(=O)(O)CCC(N)C(=O)O` (centres unmarked) [Glufosinate], in the assay on Arabidopsis thaliana [4], the “Regulated Genes Following Herbicide Treatment: Down” value turned out to be 54, the “Regulated Genes Following Herbicide Treatment: Up” value is listed as 296 and the “No. of Lethal Genes Altered” value was 10. Further, the stress related metabolites result in the assay with Arabidopsis thaliana [6] is “Only a few, if any”. Moreover, in the assay on Magnaporthe grisea (in the presence of glufosinate), the “Nitrogen source utilization by M. grisea” value is “only able to utilize glutamine and glutamate as nitrogen sources”. Besides, in assay [5], the “leafCurling, Dev.” value is 2; the “leafTwisting, Dev.” value is given as 1; the “leafWidth, Dev.” value is reported as −2; the “matureLeafAnthocyanins, Dev.” value was found to be 0. In assay [5], the “matureLeafChlorosis, Dev.” value amounted to 3; the “matureLeafNecrosis, Dev.” value came out at 0; the “newLeafAnthocyanins, Dev.” value stood at 0; the “newLeafChlorosis, Dev.” value stood at 3. Besides, in assay [5], the “newLeafNecrosis, Dev.” value is given as 0; the “pointedLeaves, Dev.” value was determined as 1; the “characteristic symptoms (morphological phenotype)” value was “Chlorosis and leaf curling”; the “tMic, Dev.” value was determined as 1.

Take `O=C(O)CNCP(=O)(O)O` [Glyphosate]: in the assay on Arabidopsis thaliana [6] (after one hour), the “tyrosine level relative to the control” value was “decreased”. Besides, the “Growth of M. grisea, Tiers 3 and 4 media” value with Magnaporthe grisea was “nearly identical as compared to Unknown 4; also recorded: inhibited growth of M. grisea when nitrate, nitrite, or glutamate was provided as the sole nitrogen source”. The “Growth inhibition of M. grisea” value with Magnaporthe grisea (glyphosate at 1.0 mg/ml) is listed as “remediated by inclusion of aromatic amino acids to the media”. In assay [5], the “leafCurling, Dev.” value amounted to 0; the “leafTwisting, Dev.” value is recorded as 0; the “leafWidth, Dev.” value is 0; the “matureLeafAnthocyanins, Dev.” value came to 3. In addition, in assay [5], the “matureLeafChlorosis, Dev.” value is given as 1; the “matureLeafNecrosis, Dev.” value came out at 3; the “newLeafAnthocyanins, Dev.” value was found to be 1; the “newLeafChlorosis, Dev.” value came out at 2. Besides, in assay [5], the “newLeafNecrosis, Dev.” value amounted to 0; the “pointedLeaves, Dev.” value came out at 1; the “characteristic symptoms (morphological phenotype)” value was “anthocyanin accumulation in the older leaves accompanied by chlorosis of the newly emerging leaves”; the “tMic, Dev.” value turned out to be 2.

Regarding `CC(C)C1(C)N=C(c2ncccc2C(=O)O)NC1=O` (centres unmarked) [Imazapyr], the stress related metabolites result in the assay on Arabidopsis thaliana [6] was “Only a few, if any”. The “characteristic symptoms (morphological phenotype)” value in assay [5] is reported as “anthocyanin accumulation in the older leaves accompanied by chlorosis of the newly emerging leaves”.

Regarding `CS(=O)(=O)c1cc(C(F)(F)F)ccc1C(=O)c1cnoc1C1CC1` [Isoxaflutole], in the assay on Arabidopsis thaliana [4], the “alterations in the expression of genes of the homogentisate biosynthetic pathway” value is listed as “not observed”, the “Regulated Genes Following Herbicide Treatment: Down” value was found to be 370 and the “No. of Lethal Genes Altered” value was 15. Also, the “Alpha-tocopherol level relative to the control” value in the assay on Arabidopsis thaliana [6] (early time points) is “not significantly changed”. In addition, the “tyrosine and phenylalanine level relative to the control” value with Arabidopsis thaliana [6] (metabolite data, early time points (1 hr)) was “up-regulated; also recorded: began to accumulate relative to the control after one hour”. In addition, the “Growth of M. grisea in minimal plus tyrosine and minimal media” value with Magnaporthe grisea (concentrations insufficient to inhibit growth) is reported as “inhibited in minimal plus tyrosine media, while growth in minimal media was unaffected”.

Take `O=[N+]([O-])O` [Nitrate, nitrate]: in the assay with Arabidopsis plants, the “Nitrate Regulation of Glutamate synthetase gene” value was “↑”, the “Nitrate Regulation of Glutamine synthetase (2) genes” value is “↑”, the “Nitrate Regulation of MADs Box (2) genes” value was “↓” and the “Nitrate Regulation of MYB transcription factor gene” value is listed as “↑”. For the same molecule, in the assay on Arabidopsis plants, the “Nitrate Regulation of Malate Dehydrogenase gene” value is recorded as “↑”, the “Nitrate Regulation of Nitrate transporter gene” value is recorded as “↑”, the “Nitrate Regulation of Phosphate transporter gene” value was “↑” and the “Nitrate Regulation of Transaldolase gene” value is “↑”. Also, the “Nitrate Regulation of Transketolase gene” value in the assay on Arabidopsis plants is on record as “↑”.

For the molecule `CNc1cnn(-c2cccc(C(F)(F)F)c2)c(=O)c1Cl` [Norfluazon, Norflurazon], the stress related metabolites entry in the assay with Arabidopsis thaliana [6] is on record as “Only a few, if any”.
